Experiment [1] has as its target Atypical kinase COQ8A, mitochondrial (Homo sapiens, UniProt Q8NI60). Kind of experiment: Selectivity interaction (LanthaScreen Eu Kinase Binding Assay) EUB0001632a ADCK3. The settings on record: at 10 µM. (In TR-FRET formats the signal depends on donor and acceptor labels being close together.)
Experiment [2] addresses Sodium-dependent noradrenaline transporter (Homo sapiens, UniProt P23975). Kind of experiment: Selectivity interaction (GPCR panel (PDSP screen)) EUB0001079a SLC6A2. The conditions noted are these: at 10 µM.
The target in experiment [3] is Mitogen-activated protein kinase 14 (Homo sapiens, UniProt Q16539). Kind of experiment: Selectivity interaction (Enyzmatic assay) EUB0000601a MAPK14.
In the next experiment the target is Focal adhesion kinase 1 (Homo sapiens, UniProt Q05397). Kind of experiment: Selectivity interaction (ActivX KiNativ screen (kinase selectivity in THP-1 cell lysates)) EUB0000639a PTK2. Type of experiment: subcellular. The conditions noted are these: lysate.
Experiment [4] concerns the target Phosphorylase b kinase gamma catalytic chain, skeletal muscle/heart isoform (Homo sapiens) (UniProt Q16816). The conditions noted are these: at 10 µM.
Experiment [5] deals with Serine/threonine-protein kinase pim-1 (Homo sapiens, UniProt P11309). Kind of experiment: Selectivity interaction (KinomeScan (DiscoverX)) EUB0000695a PIM1. The settings on record: at 100 nM.
The target in experiment [6] is Acetylcholine receptor subunit alpha (Homo sapiens, UniProt P02708). Kind of experiment: Selectivity interaction (Panel of kinases, GPCRs, ion channels and transporters (enzymatic assay)) EUB0000223bCl CHRNA1.
A further experiment concerns the target SRSF protein kinase 1 (Homo sapiens, UniProt Q96SB4). Kind of experiment: Selectivity interaction (KinomeScan (DiscoverX)) EUB0000045b SRPK1.
The target of experiment [7] is T1, Serine/threonine-protein kinase D2 (Homo sapiens) (UniProt Q9BZL6).
T1 sequence (whole entry): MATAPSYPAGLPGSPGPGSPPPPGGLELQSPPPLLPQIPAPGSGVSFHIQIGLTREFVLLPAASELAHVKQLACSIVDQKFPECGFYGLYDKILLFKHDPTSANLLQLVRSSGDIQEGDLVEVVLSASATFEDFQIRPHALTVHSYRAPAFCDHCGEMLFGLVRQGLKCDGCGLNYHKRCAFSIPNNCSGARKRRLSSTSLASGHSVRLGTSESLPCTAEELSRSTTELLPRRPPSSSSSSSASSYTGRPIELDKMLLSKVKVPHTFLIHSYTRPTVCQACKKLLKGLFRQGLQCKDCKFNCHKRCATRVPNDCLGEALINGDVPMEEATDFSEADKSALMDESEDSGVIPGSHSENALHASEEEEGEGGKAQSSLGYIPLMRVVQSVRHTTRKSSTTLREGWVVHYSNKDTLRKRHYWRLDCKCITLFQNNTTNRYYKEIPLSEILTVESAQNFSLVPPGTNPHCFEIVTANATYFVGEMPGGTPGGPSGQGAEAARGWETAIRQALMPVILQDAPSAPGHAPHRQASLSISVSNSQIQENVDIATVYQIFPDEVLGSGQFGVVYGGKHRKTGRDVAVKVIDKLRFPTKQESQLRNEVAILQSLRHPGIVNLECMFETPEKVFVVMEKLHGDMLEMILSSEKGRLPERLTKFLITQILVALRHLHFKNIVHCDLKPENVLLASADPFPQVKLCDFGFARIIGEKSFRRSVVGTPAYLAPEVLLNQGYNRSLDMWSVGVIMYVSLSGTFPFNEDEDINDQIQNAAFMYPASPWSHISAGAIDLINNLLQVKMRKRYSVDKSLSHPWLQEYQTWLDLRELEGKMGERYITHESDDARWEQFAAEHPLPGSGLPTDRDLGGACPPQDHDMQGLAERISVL
Kind of experiment: Selectivity interaction (KinomeScan (DiscoverX)) EUB0000618a PRKD2. The settings on record: at 10 µM.

The target in experiment [8] is T2, Ephrin type-B receptor 1 (Homo sapiens) (UniProt P54762).
T2 sequence (whole entry): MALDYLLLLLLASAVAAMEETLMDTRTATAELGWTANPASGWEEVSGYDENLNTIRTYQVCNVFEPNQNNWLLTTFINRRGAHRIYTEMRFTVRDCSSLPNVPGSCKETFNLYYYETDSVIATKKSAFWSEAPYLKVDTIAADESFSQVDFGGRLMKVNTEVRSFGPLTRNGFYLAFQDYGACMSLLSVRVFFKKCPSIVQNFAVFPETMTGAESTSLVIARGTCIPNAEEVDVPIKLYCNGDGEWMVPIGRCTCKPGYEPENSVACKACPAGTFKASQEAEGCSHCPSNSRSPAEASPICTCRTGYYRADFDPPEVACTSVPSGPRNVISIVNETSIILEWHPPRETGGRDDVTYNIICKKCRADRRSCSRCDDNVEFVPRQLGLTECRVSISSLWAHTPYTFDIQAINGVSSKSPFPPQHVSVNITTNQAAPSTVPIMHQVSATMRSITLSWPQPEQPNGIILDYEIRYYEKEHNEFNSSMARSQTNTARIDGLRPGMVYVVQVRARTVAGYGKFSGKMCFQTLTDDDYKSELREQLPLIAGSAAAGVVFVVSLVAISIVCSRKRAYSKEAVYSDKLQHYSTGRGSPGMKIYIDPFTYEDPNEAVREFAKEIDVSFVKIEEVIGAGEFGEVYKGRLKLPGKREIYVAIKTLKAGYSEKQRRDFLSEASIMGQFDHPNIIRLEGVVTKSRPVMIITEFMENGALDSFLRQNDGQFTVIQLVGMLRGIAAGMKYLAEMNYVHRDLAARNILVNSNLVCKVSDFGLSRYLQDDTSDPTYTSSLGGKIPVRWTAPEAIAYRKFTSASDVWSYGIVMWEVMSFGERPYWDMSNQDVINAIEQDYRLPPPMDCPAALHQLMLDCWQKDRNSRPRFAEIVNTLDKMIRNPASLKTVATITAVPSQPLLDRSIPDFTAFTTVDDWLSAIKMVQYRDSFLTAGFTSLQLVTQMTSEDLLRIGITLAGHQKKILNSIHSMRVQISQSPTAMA
Kind of experiment: Selectivity interaction (KinomeScan (DiscoverX)) EUB0000595a EPHB1. The settings on record: at 10 µM.

Focal adhesion kinase 1, sequence (Q05397 2-1052 limits assumed): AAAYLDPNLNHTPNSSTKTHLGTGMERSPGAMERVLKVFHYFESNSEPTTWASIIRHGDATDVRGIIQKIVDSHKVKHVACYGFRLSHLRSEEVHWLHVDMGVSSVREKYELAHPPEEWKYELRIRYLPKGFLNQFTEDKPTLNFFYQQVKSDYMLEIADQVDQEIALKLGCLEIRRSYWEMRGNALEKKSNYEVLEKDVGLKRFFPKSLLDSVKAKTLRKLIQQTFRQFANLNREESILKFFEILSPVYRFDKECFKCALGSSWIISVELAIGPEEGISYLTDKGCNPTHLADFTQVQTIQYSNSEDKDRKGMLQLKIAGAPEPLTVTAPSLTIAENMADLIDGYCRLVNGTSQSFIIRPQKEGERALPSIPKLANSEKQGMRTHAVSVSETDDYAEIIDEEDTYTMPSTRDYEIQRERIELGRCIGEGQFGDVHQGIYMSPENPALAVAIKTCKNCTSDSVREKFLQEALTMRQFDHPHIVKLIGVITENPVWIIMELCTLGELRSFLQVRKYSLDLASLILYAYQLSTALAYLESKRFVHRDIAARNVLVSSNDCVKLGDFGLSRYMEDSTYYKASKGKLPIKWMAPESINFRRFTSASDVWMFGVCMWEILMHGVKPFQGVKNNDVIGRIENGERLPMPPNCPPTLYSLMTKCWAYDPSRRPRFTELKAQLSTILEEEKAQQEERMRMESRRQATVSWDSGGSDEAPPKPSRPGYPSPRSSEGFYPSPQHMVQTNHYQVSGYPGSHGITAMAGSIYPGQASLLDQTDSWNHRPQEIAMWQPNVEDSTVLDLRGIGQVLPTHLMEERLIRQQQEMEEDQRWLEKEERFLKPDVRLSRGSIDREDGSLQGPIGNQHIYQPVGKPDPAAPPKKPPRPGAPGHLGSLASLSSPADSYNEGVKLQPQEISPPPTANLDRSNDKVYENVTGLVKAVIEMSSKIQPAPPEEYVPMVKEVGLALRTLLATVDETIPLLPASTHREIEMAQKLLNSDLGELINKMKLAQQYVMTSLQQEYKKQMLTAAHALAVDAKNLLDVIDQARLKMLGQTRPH
SRSF protein kinase 1, sequence (Q96SB4 whole entry): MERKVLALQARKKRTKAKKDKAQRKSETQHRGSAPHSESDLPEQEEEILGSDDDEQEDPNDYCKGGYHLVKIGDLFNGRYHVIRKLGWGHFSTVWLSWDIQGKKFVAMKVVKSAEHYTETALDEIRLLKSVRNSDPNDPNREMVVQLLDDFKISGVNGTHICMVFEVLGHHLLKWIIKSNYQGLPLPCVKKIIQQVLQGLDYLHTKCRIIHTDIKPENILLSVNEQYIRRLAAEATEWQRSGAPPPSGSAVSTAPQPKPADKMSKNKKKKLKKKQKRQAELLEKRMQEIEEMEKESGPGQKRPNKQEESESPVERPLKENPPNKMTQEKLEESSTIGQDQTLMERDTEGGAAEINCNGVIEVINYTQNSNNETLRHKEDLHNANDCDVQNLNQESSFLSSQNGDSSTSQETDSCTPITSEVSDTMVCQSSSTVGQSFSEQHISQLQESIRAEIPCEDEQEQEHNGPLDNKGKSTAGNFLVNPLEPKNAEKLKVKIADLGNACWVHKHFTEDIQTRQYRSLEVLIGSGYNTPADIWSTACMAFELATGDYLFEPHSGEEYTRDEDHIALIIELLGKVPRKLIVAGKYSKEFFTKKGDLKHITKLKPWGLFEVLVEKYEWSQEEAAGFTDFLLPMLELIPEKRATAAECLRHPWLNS
Serine/threonine-protein kinase pim-1, sequence (P11309 whole entry, looked up): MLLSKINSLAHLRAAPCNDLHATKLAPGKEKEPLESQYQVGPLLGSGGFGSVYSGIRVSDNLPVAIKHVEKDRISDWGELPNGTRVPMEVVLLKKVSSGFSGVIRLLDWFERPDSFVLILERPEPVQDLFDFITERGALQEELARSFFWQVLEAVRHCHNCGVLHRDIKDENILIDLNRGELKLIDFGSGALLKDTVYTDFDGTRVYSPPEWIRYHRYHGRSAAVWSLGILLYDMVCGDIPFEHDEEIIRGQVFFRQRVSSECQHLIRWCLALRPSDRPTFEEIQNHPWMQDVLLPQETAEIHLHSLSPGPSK
Acetylcholine receptor subunit alpha, sequence (P02708 whole entry): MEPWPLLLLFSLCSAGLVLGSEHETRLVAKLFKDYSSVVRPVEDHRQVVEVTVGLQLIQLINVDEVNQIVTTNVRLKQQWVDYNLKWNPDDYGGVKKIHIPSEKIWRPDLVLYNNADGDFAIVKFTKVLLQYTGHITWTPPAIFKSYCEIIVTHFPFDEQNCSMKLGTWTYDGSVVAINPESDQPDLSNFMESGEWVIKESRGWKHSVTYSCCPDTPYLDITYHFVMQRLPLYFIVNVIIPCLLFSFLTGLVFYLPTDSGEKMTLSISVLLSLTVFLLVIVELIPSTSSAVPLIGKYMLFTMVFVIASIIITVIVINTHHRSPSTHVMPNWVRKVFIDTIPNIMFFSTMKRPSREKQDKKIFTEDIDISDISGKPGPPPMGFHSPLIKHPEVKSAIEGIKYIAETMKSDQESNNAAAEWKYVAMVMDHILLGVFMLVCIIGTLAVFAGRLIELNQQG
Phosphorylase b kinase gamma catalytic chain, skeletal muscle/heart isoform (Homo sapiens), sequence (Q16816 whole entry, looked up, canonical isoform): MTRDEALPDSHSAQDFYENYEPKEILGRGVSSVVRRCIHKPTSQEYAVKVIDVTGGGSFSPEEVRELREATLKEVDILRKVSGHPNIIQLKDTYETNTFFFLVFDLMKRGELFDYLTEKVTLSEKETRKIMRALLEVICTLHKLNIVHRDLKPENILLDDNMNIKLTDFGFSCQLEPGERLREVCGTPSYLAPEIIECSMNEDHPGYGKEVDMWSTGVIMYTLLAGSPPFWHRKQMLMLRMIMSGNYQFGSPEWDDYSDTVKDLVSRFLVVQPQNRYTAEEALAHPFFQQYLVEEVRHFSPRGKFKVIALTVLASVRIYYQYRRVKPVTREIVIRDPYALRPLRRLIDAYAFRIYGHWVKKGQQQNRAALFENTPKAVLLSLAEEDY
Atypical kinase COQ8A, mitochondrial, sequence (Q8NI60 163-647 limits assumed): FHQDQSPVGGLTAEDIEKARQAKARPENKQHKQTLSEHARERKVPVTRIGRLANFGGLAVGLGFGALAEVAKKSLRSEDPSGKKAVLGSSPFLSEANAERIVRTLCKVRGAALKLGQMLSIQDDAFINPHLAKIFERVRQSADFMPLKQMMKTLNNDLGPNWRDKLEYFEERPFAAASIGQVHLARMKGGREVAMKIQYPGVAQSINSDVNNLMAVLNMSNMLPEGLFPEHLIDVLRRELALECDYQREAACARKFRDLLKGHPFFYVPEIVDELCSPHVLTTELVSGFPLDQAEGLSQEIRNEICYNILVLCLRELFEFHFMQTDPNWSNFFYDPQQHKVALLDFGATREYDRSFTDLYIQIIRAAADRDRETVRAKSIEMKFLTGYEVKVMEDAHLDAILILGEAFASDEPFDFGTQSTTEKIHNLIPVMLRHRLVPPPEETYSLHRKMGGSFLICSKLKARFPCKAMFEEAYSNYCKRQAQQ
Mitogen-activated protein kinase 14, sequence (Q16539 whole entry): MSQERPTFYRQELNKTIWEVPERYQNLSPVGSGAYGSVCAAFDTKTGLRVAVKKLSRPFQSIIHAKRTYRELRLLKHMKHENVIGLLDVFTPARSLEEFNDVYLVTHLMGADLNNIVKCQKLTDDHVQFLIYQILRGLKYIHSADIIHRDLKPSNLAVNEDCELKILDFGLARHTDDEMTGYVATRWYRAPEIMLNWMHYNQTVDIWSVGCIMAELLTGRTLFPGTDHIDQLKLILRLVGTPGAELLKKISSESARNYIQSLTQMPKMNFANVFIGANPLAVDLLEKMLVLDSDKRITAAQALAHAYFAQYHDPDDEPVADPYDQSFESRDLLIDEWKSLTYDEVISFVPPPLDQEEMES
Sodium-dependent noradrenaline transporter, sequence (P23975 whole entry): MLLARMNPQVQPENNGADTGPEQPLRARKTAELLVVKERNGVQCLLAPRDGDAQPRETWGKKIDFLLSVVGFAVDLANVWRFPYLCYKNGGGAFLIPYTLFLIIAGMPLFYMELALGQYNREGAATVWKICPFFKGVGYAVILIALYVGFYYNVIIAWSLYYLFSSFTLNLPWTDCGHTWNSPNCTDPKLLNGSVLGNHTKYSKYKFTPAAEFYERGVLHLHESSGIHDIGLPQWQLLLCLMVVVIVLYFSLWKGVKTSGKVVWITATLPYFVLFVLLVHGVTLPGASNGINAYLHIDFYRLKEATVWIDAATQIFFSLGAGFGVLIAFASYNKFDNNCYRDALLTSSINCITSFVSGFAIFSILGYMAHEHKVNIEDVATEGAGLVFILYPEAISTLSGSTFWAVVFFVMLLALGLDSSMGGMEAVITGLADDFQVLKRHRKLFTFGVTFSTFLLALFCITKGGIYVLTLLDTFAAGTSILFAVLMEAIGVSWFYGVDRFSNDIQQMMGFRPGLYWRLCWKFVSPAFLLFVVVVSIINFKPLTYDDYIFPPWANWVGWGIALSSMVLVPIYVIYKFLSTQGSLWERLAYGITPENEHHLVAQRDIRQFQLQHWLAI

`Cn1cc(-n2cnc3c(NCc4nc5cc(Cl)c(Cl)cc5[nH]4)nc(N4CCOCC4)nc32)cn1`: the % of inhibition in [1] is 8.48%.
For `Nc1cnc(N2CCc3cc(S(=O)(=O)Nc4c(F)cc(Cl)cc4F)cc(N4CCCC4=O)c32)nc1` [TP-020n], the % of inhibition in experiment [2] was 18.2%.
A word on the IC50: it is the concentration at which inhibition is half-maximal. Higher therefore signals weaker potency in that assay. `CCc1cc(Nc2nccc(-c3c(-c4ccc(OC)c(C(=O)Nc5c(F)cccc5F)c4)nc4ccccn34)n2)c(OC)cc1N1CCC(N2CCN(S(C)(=O)=O)CC2)CC1` displayed a 50% inhibitory concentration (IC50) in experiment [3] greater than 10 µM.
For `CC[C@@H]1[C@H](F)C(=O)N[C@@H]1COc1nccc2cc(C(N)=O)c(OC)cc12` [ZIMLOVISERTIB], the % of inhibition was 25.4% on Focal adhesion kinase 1 (at 0.01 µM); -3.4% on Focal adhesion kinase 1 (at 0.04 µM); -1.1% on Focal adhesion kinase 1 (at 0.2 µM); -16.1% on Focal adhesion kinase 1 (at 1 µM); 15.5% on Focal adhesion kinase 1 (at 5 µM).
As to `CCN(CC)CCCCNc1ncc2cc(-c3cc(OC)cc(OC)c3)c(NC(=O)NC(C)(C)C)nc2n1`, the % of control in experiment [4] was found to be 100%.
As for `Cc1cc(F)c(C(=O)Nc2cccc(-c3nncn3C(C)C)n2)cc1-n1cnc(C2CC2)c1`, the % of control in experiment [5] was determined as 100%.
`COc1cc(C(=O)N2CC[C@@H](O)[C@@H](N)C2)cc2nc(-c3cc4ccccc4n3CC3CC3)n(C)c12` showed a pXC50 in experiment [6] of 5.8 M.
For the compound `C=CC(=O)Nc1cc(-n2c(=O)ccc3cnc4ccc(-c5ccc(NS(C)(=O)=O)cc5)cc4c32)ccc1C`, the results for the % of control on SRSF protein kinase 1 (at 1 µM) and at SRSF protein kinase 1 (at 10 µM) were 78% and 100%, respectively.
As to `O[C@H]1CC[C@H](Nc2ncc3nc(Nc4c(F)cc(F)cc4F)n([C@H]4CCOC4)c3n2)CC1`, in experiment [7], the % of control turned out to be 77%.
Compound `COCC(=O)NC/C=C/c1ccc2ncnc(Nc3ccc(Oc4ccc(C)nc4)c(C)c3)c2c1` [CP-724714] yielded a % of control in experiment [8] of 100%.

For the origin of these results see ChEMBL document CHEMBL5465560, “Selectivity Literature for EUbOPEN Chemogenomic Library” (2024).
